Like-named read-outs stand apart in the source and are kept apart here. Blank lines part the entries; values can stand above or below the compound they belong to.
Columns and labels:
DNMT3A [1] = target: T1, DNMT3A (Homo sapiens, UniProt Q9Y6K1); test: HotSpot radioisotope methyltransferase inhibition assay, DNMT3A; format: biochemical
T1 construct: purchased Reaction Biology Corporation
Protocol: The inhibition of the enzymatic activity of DNMT1, DNMT3A, and DNMT3B was tested using the HotSpotSM platform for methyltransferase assays available at Reaction Biology Corporation. HotSpotSM is a low volume radioisotope-based assay that uses tritium-labeled AdoMet (3H-SAM) as a methyl donor. The three test compounds diluted in dimethyl sulfoxide were added using acoustic technology (Echo550, Labcyte, San Jose, CA, USA) into an enzyme/substrate mixture in the nano-liter range. The corresponding reactions were commenced by adding 3H-SAM and incubated at 30 °C. Total final methylations on the substrate (Poly dI-dC in DNMT1, 3A, and 3B assays) were identified by a filter binding method implemented in Reaction Biology. Data analysis was done with Graphed Prism software (La Jolla, CA, USA) for curve fits. The enzymatic inhibition assays were carried out at 1 μM of SAM. In all assays, SAH was used as a standard positive control. The three compounds were tested first with DNMT1 at one 100 μM concentration in duplicate. […] The research group has recently contracted the screening services of Reaction Biology Corporation to identify a novel DNMTi.

DNMT3B [2] = target: T2, DNMT3B (Homo sapiens, UniProt Q9UBC3); test: HotSpot radioisotope methyltransferase inhibition assay, DNMT3B; format: biochemical; settings: for inhibition of DNMT3B (in words): enzymatic inhibition assays
T2 construct: purchased Reaction Biology Corporation

DNMT3B [3] = target: T2, DNMT3B; parameters: method as in PMID 34790902; settings: Pappalardi et al.; cited from earlier work
G9a [4] = settings: Figure 1, activity as available in the literature; cited from earlier work
DNMT3B [5] = target: T2, DNMT3B; parameters: method as in PMID 29953809; settings: Figure 1, activity as available in the literature; cited from earlier work
DNMT3A/3L = test system: DNMT3A/3L; parameters: method as in PMID 29953809; settings: Figure 1, activity as available in the literature; cited from earlier work
DNMT3A [6] = target: T1, DNMT3A; parameters: method as in PMID 34790902; settings: Pappalardi et al.; cited from earlier work
DNMT3B/3L = test system: DNMT3B/3L; parameters: method as in PMID 29953809; settings: Figure 1, activity as available in the literature; cited from earlier work
DNMT1 [7] = target: T3, DNMT1 (Homo sapiens, UniProt P26358); parameters: method as in PMID 29953809; settings: Figure 1, activity as available in the literature; cited from earlier work
T3 construct: purchased Reaction Biology Corporation
T3 sequence (P26358 whole entry): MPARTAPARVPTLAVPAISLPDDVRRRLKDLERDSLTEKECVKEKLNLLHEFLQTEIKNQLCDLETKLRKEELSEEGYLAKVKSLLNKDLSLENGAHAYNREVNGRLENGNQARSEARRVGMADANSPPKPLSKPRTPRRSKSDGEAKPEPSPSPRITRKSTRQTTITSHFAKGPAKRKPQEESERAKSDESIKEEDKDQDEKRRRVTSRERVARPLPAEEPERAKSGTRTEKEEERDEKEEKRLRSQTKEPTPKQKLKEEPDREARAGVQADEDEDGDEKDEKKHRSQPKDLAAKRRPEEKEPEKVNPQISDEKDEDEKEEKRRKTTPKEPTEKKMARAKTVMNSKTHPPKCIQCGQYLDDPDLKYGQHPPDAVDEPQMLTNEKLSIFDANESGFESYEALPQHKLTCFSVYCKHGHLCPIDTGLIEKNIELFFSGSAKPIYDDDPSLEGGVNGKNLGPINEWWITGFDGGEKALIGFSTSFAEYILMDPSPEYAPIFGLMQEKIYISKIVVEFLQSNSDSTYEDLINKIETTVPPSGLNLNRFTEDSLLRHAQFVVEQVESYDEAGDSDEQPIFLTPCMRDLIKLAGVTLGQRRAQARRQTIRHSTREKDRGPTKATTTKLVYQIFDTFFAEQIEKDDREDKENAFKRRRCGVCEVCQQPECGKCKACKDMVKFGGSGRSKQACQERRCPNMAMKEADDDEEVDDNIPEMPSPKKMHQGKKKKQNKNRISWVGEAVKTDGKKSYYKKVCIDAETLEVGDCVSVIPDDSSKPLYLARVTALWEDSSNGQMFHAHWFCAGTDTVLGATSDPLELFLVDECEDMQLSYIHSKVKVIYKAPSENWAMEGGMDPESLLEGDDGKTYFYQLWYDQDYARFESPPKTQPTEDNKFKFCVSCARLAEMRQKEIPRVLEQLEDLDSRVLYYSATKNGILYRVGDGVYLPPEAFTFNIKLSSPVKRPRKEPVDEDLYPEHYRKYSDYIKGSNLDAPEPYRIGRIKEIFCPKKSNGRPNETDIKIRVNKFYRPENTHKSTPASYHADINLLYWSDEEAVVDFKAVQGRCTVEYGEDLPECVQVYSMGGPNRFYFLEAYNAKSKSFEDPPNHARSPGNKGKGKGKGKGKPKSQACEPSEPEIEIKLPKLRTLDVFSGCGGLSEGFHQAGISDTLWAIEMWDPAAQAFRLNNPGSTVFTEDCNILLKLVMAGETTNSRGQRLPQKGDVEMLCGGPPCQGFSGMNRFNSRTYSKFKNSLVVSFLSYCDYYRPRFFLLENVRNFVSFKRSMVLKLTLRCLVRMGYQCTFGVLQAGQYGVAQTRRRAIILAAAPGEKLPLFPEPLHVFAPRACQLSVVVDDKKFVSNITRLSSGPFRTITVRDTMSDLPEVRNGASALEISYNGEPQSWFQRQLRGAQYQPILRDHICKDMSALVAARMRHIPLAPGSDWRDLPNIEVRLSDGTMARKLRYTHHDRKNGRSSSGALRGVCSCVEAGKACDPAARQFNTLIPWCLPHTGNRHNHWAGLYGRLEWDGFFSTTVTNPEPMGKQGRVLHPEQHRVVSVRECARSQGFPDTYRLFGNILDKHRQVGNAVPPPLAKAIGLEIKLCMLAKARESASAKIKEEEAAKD

[8] = test system: human acute myeloid leukemia xenograft; parameters: method as in PMID 29953809; settings: human acute myeloid leukemia xenograft in a mouse model; cited from earlier work
[9] = test system: human breast adenocarcinoma (MDA-MB-231) cells; parameters: method as in PMID 21780790; settings: read-out: cell toxicity EC50; cited from earlier work
DNMT1 [10] = target: T3, DNMT1; test: HotSpot radioisotope methyltransferase inhibition assay, DNMT1; format: biochemical; settings: for relative enzymatic activity of DNMT1 as percentages: 100 μM compound, mean of two measurements ± standard deviation; for IC50: 10-concentration IC50, 1 μM SAM, mean of two measurements; for DNMT1: % inhibition / inhibition at 100 µM: single concentration 100 µM, duplicate, 1 μM SAM
[11] = test system: H3K9me2 levels in human breast adenocarcinoma (MDA-MB-231) cells; parameters: method as in PMID 21780790; settings: read-out: potency in reducing H3K9me2 levels; cited from earlier work
G9a [12] = test system: G9a; parameters: method as in PMID 21780790; settings: enzymatic, in vitro; cited from earlier work

T1 sequence (Q9Y6K1 whole entry, looked up): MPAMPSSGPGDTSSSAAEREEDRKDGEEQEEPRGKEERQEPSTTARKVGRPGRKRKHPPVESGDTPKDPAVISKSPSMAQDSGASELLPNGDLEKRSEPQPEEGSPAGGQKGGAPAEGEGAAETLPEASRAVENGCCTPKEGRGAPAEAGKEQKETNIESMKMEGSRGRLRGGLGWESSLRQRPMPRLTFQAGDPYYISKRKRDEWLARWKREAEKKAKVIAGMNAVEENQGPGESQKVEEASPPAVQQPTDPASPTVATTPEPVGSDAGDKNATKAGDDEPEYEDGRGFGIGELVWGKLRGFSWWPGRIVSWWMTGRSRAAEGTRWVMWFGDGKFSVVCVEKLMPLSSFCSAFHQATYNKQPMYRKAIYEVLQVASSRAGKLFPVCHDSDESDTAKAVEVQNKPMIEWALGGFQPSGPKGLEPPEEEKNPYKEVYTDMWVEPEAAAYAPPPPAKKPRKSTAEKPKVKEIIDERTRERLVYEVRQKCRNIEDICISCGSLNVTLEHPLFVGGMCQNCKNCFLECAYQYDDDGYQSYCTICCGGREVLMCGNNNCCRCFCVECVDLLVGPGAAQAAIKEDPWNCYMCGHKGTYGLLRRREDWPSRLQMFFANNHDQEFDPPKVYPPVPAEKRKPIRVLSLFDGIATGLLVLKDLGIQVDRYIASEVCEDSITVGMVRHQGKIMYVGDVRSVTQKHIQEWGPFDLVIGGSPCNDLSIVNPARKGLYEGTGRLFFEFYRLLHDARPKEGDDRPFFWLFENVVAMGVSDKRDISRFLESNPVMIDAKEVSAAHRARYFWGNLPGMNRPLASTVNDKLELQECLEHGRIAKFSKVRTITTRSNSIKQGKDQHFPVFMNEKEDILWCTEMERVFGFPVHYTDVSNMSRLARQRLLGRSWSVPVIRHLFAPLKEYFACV

- IC50 (DNMT3A [1]): 0.1 µM
- IC50 (DNMT3B [2]): 0.03 µM
SMILES: Nc1ncnc2c1ncn2[C@@H]1O[C@H](CSCC[C@H](N)C(=O)O)[C@@H](O)[C@H]1O [SAH, S-adenosyl-L-homocysteine]
- IC50 (DNMT3B [3]): 0.09 µM

SMILES: Nc1ncn([C@@H]2O[C@H](CO)[C@@H](O)[C@H]2O)c(=O)n1 [compound 1, 5-azacitidine]
- IC50 (G9a [4]): > 10 µM

SMILES: Nc1ncn([C@H]2C[C@H](O)[C@@H](CO)O2)c(=O)n1 [compound 2, 5-aza-2′-deoxycytidine]
- IC50 (G9a [4]): > 10 µM

SMILES: Cc1cc(Nc2ccc(NC(=O)c3ccc(Nc4ccnc5ccccc45)cc3)cc2)nc(N)n1 [compound 3]
- IC50 (G9a [4]): > 10 µM
- IC50 (DNMT3B [3]): 7 µM

SMILES: COc1ccc(Cl)cc1C(=O)NCCc1ccc(S(=O)(=O)NC(=O)NC2CCCCC2)cc1 [compound 4, Glyburide]
- IC50 (DNMT3B [5]): > 100 µM

SMILES: CCc1c(C#N)c(SC(C(N)=O)c2ccccc2)nc(N2CCC(N)CC2)c1C#N (stereo not drawn) [compound 5]
- IC50 (DNMT3A/3L): > 100 µM
- inhibition of DNMT3A (in words) (DNMT3A [6]): did not inhibit
- IC50 (DNMT3B/3L): > 100 µM
- inhibition of DNMT3B (in words) (DNMT3B [3]): did not inhibit

SMILES: C[C@@H]1O[C@@H](CC(=O)O)CC2=C1C(=O)c1c(O)cccc1C2=O [compound 6, nanaomycin A]
- IC50 (DNMT1 [7]): > 10 µM

SMILES: COc1cc2c(NC3CCN(C(C)C)CC3)cc(C3CCCCC3)nc2cc1OCCCN1CCCC1 [compound 7]
- IC50 (G9a [4]): 0.0007 µM

SMILES: COc1cc2c(NC3CCN(C)CC3)cc(-c3ccc(C)o3)nc2cc1OCCCN1CCCC1 [compound 8]
- tumor growth inhibition [8]: 70%

SMILES: COc1cc2nc(N3CCCN(C)CC3)nc(NC3CCN(Cc4ccccc4)CC3)c2cc1OC [compound 9]
- IC50 (DNMT1 [7]): > 10 µM

SMILES: COc1cc2c(NC3CCN(C(C)C)CC3)nc(N3CCC(F)(F)CC3)nc2cc1OCCCN1CCCC1 [compound 11]
- IC50 (DNMT1 [7]): > 50 µM

- relative enzymatic activity of DNMT1 as percentages (DNMT1 [10]): 0.3 ± 0.10%
- IC50 (DNMT1 [10]): 0.03 µM
- DNMT1: % inhibition (DNMT1 [10]): 99.7%
- inhibition at 100 µM (DNMT1 [10]): > 99%
- IC50 (DNMT3A [1]): 4.87 µM
- inhibition of DNMT3B (in words) (DNMT3B [2]): none of them inhibited
- IC50 (DNMT3B [2]; read-out: DNMT3B IC50): > 100 µM
SMILES: COc1cc2c(NC3CCN(C4CCCCC4)CC3)nc(N3CCCN(C(C)C)CC3)nc2cc1OCCCN1CCCCC1 [compound 12]
- EC50 [9]: 3.3 µM
- IC50 [11]: 0.026 µM
- IC50 (G9a [12]): 0.006 µM

- relative enzymatic activity of DNMT1 as percentages (DNMT1 [10]): 0.7 ± 0.02%
- IC50 (DNMT1 [10]): 0.081 µM
- DNMT1: % inhibition (DNMT1 [10]): 99.3%
- inhibition at 100 µM (DNMT1 [10]): > 99%
- IC50 (DNMT3A [1]): 14.7 µM
- inhibition of DNMT3B (in words) (DNMT3B [2]): none of them inhibited
- IC50 (DNMT3B [2]; read-out: DNMT3B IC50): > 100 µM
SMILES: COc1cc2c(NC3CCN(CC4CCCCC4)CC3)nc(N3CCCN(C(C)C)CC3)nc2cc1OCCCN1CCCCC1 [compound 13]
- EC50 [9]: 2.8 µM
- IC50 [11]: 0.025 µM
- IC50 (G9a [12]): 0.004 µM

- relative enzymatic activity of DNMT1 as percentages (DNMT1 [10]): 92.6 ± 2.40%
- inhibition at 100 µM (DNMT1 [10]): 7.4%
SMILES: COc1cc2c(Nc3ccc(NC(=O)c4ccccc4)cc3)ncnc2cc1OCCCN1CCOCC1 [compound 14]

Source: PMC9102847, “7-Aminoalkoxy-Quinazolines from Epigenetic Focused Libraries Are Potent and Selective Inhibitors of DNA Methyltransferase 1” (Molecules, 2022)
